Results reported in patent US7531320B2, “Modulation of β-catenin/TCF-activated transcription” (priority 2003, dated 2009).

What was measured:
p300/β-catenin complex [1] = biological target: T1, p300/β-catenin complex (Homo sapiens, UniProt Q09472); test: Co-immunoprecipitation of β-catenin with p300 in SW480 cells; assay type: cell-based; details: p300 (1-111), (1-211), (1-351), 50 μM COMPOUND 1
T1 construct: endogenous in cells; host or cells: SW480
Protocol: (§1) FIG. 3. COMPOUND 1 disrupts the β-catenin/CBP complex but not the p300/β-catenin complex. • A. Full-length Xenopus laevis β-catenin (1.1, 2.2, and 3.3 μg) or murine CBP (0.14, 0.28, 0.55, 1.1, and 2.2 μg) plasmids were cotransfected in SW480 cells along with the β-catenin/TCF (1.1 μg) reporter gene construct. Empty pcDNA3 vector was used to equalize the amount of DNA used in each reaction. Dual luciferase assays were performed 24 hours post COMPOUND 1 treatment. All experiments were performed in duplicate and values plotted as means +/−standard deviation. • B. COMPOUND 1 competes with β-catenin for CBP. SW480 cells were treated with 5 or 10 μM of COMPOUND 1 or control (0.5% DMSO). 24 hours post treatment, lysates were incubated with beads coated with either control the antibody, or anti-CBP, or anti-p300 antibodies. Co-immunoprecipitated proteins were subjected to gel electrophoresis and immunoblotting using anti-β-catenin antibodies. The arrows point to the immunoprecipitated β-catenin (doublets). • C. CBP (1-111) is the minimal region of interaction with β-catenin. SW480 cells transfected with a CBP deletion series were subjected to immunoprecipitation using anti-β-catenin antibodies coated on Protein A-agarose beads. The immune complexes were washed and subjected to gel electrophoresis followed by immunoblotting using anti-His antibodies. […]
T1 sequence (Q09472 1-111, one chain of several): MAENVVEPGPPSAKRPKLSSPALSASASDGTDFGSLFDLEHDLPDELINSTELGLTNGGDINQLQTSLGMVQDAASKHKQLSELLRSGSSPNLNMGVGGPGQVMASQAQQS

p300/β-catenin complex [2] = biological target: T2, p300/β-catenin complex (Homo sapiens, UniProt Q09472); test: as above; assay type: cell-based; details: SW480 cells, 5 or 10 μM, 24 hours
T2 construct: endogenous in cells; host or cells: SW480
Protocol: as §1
T2 sequence (Q09472 2-2414, one chain of several): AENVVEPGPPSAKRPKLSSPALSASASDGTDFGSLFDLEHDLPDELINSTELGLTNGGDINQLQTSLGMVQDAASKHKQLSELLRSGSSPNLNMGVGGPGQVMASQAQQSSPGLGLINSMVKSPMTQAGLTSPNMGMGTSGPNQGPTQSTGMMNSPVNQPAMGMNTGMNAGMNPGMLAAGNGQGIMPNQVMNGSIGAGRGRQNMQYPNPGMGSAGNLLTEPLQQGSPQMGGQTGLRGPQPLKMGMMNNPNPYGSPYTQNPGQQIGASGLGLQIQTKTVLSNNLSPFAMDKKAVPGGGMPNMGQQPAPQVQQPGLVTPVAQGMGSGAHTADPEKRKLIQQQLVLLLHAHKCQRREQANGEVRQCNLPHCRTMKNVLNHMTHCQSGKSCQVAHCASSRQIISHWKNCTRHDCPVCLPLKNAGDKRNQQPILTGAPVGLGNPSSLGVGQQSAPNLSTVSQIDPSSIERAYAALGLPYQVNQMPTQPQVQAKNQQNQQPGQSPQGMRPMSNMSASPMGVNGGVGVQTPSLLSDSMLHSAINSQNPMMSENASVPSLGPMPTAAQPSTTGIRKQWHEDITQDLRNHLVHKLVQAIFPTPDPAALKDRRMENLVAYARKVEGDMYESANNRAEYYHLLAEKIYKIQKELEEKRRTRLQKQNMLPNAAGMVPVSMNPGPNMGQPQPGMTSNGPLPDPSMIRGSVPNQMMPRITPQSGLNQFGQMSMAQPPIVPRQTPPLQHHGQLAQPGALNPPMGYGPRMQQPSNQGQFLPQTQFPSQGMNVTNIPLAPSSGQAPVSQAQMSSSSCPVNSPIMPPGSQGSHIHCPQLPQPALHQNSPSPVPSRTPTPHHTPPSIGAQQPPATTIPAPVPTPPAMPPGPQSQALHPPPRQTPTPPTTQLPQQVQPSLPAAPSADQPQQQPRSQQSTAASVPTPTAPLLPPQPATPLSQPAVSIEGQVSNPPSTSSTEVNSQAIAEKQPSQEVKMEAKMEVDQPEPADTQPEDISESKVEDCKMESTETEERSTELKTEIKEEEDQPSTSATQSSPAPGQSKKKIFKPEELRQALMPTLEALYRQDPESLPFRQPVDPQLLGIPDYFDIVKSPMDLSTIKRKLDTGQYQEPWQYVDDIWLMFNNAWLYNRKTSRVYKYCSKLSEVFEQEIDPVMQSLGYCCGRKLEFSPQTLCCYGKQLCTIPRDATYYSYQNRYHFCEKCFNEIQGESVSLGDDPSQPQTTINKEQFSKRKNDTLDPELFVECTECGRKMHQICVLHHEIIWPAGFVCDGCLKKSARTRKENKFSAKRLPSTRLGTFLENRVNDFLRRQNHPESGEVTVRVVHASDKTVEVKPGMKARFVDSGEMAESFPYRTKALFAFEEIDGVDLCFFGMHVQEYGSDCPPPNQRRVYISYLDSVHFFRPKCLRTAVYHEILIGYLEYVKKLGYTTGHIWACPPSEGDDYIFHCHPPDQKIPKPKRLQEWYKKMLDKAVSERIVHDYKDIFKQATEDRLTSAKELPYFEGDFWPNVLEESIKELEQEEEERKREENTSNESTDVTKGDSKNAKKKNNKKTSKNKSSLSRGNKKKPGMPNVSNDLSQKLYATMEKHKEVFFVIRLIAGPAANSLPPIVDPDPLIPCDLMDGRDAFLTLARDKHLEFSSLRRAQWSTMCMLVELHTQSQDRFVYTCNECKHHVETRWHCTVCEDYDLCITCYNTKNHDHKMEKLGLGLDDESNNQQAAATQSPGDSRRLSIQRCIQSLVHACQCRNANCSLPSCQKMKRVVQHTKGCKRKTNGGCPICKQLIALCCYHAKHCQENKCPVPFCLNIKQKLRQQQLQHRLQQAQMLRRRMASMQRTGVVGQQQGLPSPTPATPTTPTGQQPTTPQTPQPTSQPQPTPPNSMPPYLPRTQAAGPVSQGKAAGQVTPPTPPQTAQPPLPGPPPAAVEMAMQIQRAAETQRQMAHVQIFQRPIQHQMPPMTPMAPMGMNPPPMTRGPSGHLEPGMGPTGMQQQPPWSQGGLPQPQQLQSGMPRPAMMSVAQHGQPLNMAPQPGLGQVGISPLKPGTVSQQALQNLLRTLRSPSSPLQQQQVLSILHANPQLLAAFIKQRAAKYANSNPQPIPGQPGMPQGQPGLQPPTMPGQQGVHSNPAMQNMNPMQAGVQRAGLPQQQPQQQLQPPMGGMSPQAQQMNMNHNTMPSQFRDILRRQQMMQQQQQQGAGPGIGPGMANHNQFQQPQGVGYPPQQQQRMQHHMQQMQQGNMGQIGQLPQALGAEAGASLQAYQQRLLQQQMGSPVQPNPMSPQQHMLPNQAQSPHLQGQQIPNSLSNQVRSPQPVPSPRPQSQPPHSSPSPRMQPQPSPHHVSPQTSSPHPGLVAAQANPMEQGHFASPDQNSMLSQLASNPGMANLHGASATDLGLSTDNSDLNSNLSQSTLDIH

HCT116 cells = test: FACS cell cycle analysis (propidium iodide), HCT116 cells; assay type: cell-based, human; details: 25 μM, 24 hours
Protocol: FIG. 6. • A. COMPOUND 1 arrests cells in G1. FACS analysis was performed on SW480 (lower panel) and HCT116 (upper panel) cells treated for 24 hours with either COMPOUND 1 (25 μM) (right) or control (0.5% DMSO (left). 5.5×10^6 cells were fixed and stained with propidium iodide (PI). G0/G1, S, and G2/M are indicated by arrows. • B. COMPOUND 1 selectively activates caspases in colon carcinoma cell lines. SW480 and HCT116 (left graph) cells (10^5) along with the normal colonocytes, CCD18Co (right graph) were treated with either control (0.5% DMSO) or COMPOUND 1 (25 μM). 24 hours post treatment, cells were lysed and the caspase-3/7 enzymatic activities were measured. Relative fluorescence units (RFU) were calculated by subtracting the unit values of the blank (control, without cells) from the treated samples (COMPOUND 1 or control) and plotted.
For FACS analysis, approx. 5×10^6 cells from PNRI-treated or vehicle-treated were fixed with 70% chilled ethanol and stored at −20° C. for at least 30 minutes. […] 10,000 stained cells for each sample were acquired using Beckman Coulter EPICS XL-MCL Flow Cytometry and the percentage of cells in different phase of the cell cycle was determined by Expo32 ADC software (Coulter Corporation, Miami, Fla., 33196). […]

## O=C1C(Cc2ccc(O)cc2)N2C(=O)CCN(C(=O)NCc3ccccc3)C2CN1Cc1cccc2ccccc12 (stereo not drawn) [COMPOUND 1]
p300/β-catenin complex [1]
  p300 fragments binding to immunoprecipitated β-catenin in presence of excess COMPOUND 1: had no effect
p300/β-catenin complex [2]
  Binding of β-catenin to p300 (immunoprecipitation): did not interfere
HCT116 cells
  Cell cycle distribution (DNA content by FACS): increased accumulation at G1/S-phase
